Test results reported in patent US20260008801A1, “BIO-BASED SURFACTANTS DERIVED FROM CARBOHYDRATES” (COÖPERATIE KONINKLIJKE COSUN U.A., priority 2022, published 2026).
Like-named read-outs stand apart in the source and are kept apart here. Values belong to the compound of their own block, whether it stands above or below them.

Assays:
Assay type in all cases: physicochemical
[1] = Solubility in water (excess of compound in 4 ml demi water); conditions: for Solubility: Table E5.2, water; for Solubility (%): Table E8
Procedure: Solubility is preferably solubility in aqueous solution, more preferably solubility in water, most preferably solubility in demineralised water. A skilled person knows how to assess such solubility.
Solubility in water was determined by preparing mixtures of an excess of compound dispersed in 4 ml demi water using a vortex at maximum speed for 1 min. […] 1 ml of the mixture was concentrated in vacuo to yield a solid. The mass of the solid was determined in mg to calculate the solubility in percentage by dividing by ten.

[2] = Foaming abilities, 1% compound solutions shaken by hand; set-up: key to FOAM: −: no foam formation; +: low foam formation; ++: moderate foam formation; +++: strong foam formation
Procedure: Foaming abilities were evaluated at room temperature by shaking 1% compound solutions (2 ml) of pH 3, 7, and 12 by hand for 10 s. The pH of each solution was assessed with a pH meter at room temperature. […] The foam heights at the initial time were compared to one another after which the foaming abilities were classified according to no foam formation (−), low foam formation (+), moderate foam formation (++), and strong foam formation (+++).

[3] = Foaming power and stability, Ultra-Turrax, 0.4% aq. surfactant; conditions: for Foamability (mL) after (min) 1 / Foamability (mL) after (min) 5 / Foamability (mL) after (min) 10: Table E5.2; for Foamability (mL) after (min) 1: foam volume after 1 min; for Foamability (mL) after (min) 5: foam volume after 5 min; for Foamability (mL) after (min) 10: foam volume after 10 min; for Foamability 1 min / Foamability 5 min / Foamability 30 min: Table E8; for Foamability 1 min: after 1 min; for Foamability 5 min: after 5 min; for Foamability 30 min: after 30 min
Procedure: Foaming power was also tested at room temperature with 5 mL of 0.4% aq. surfactant (20 mg) solution in a 50 mL measuring cylinder. After performing the Ultra-Turrax (a registered trademark for a high-performance dispersing instrument) for 20 seconds (8000 rpm), the initial height of the foam was measured for foam height. (volume in mL). Every time step of, 1, 3, 5, 10, 30, 60 minutes was noted. In addition, after 24 hours the stability was checked. Particularly, foaming power and stability of the surfactants were performed using an IKA Ultra-Turrax T25 with an 18 G dispersing element. At room temperature, an aqueous solution of 5 mL 0.4% surfactant in a 50 mL measuring cylinder (2.20 cm diameter) was mixed with the Ultra-Turrax for 20 seconds at 8000 rpm. The foam height (volume in mL) was denoted for 0, 1, 3, 5, 10, 30, 60 min and 24 hours. In addition, after 24 hours the stability was checked.

[4] = Surface tension measurements, Wilhelmy plate (surface tension, CMC)
Procedure: Surface tension measurements were performed with a Biolin Scientific Sigma701 automatic tension meter equipped with a Wilhelmy plate made of platinum (±0.5 mN/m). […] The number of experimental points is related to the compound's/surfactant's solubility and available quantity. All compound/surfactant solutions were allowed to stand 12 h before being measured. The platinum plate was thoroughly cleaned with demi water and flame-dried before each measurement. The CMC of each compound/surfactant was determined at the minimum of a breakpoint of a conventional plot of surface tension versus compound/surfactant concentration. DCMC was obtained by acquiring the surface tension at the CMC. The pC20 value was determined by taking the minus log of the concentration compound/surfactant at a surface tension of 52 mN/m.

[5] = Table E5, room temperature, pH 7
[6] = Table E6, N-oxide compounds, in Salt form
[7] = Table E4, room temperature, pH 7
[8] = Table E2, galactaric acid amides
[9] = Table E2, room temperature, pH 7

Compound: 1-(N-(decanoic acid))-L-arabinonamide [Compound 06]
foaming behaviour / foam creation, in words [2]: does not create foam

Compound: CCCCNC(=O)[C@H](O)[C@@H](O)[C@@H](O)[C@H](O)C(=O)O [Compound 09]
solubility in H2O [1]: 6%
SOLUBILITY (H2O) [1, 8]: >6%
FOAM ([2]; Table E2): −
SURFACE TENSION [4, 9]: 50.78 mN/m

Compound: CCCCCCCCCCNC(=O)[C@H](O)[C@@H](O)[C@@H](O)[C@H](O)C(=O)O [Compound 12]
solubility in water, in words [1]: relatively low
SOLUBILITY (H2O) [1, 8]: <1%
FOAM ([2]; Table E2): ++

Compound: CCCCCCCCN(C)C[C@H](O)[C@@H](O)[C@@H](O)CO [Compound 24, N-methyl-N-octyl-L-arabinamine]
SOLUBILITY (H2O) ([1]; Table E4): 0.9%
Solubility [1]: 0.9%
solubility, earlier measurements ([1]; earlier measurements, initially found): 0.25%
FOAM ([2]; Table E4, pH > 7): +
Foamability (mL) after (min) 1 [3]: 5 mL
Foamability (mL) after (min) 5 [3]: 4.5 mL
Foamability (mL) after (min) 10 [3]: 4 mL
CMC (%) ([4]; Table E4): 0.25%
SURFACE TENSION [4, 7]: 28.7 mN/m
CMC (%) ([4]; Table E5.2): 0.25%
Surface tension (nM/m) ([4]; Table E5.2): 28.7 mN/m

Compound: CCCCCCCCCCN(C)C[C@@H](O)[C@@H](O)[C@H](O)CO [Compound 24b, N-methyl-N-decyl-L-arabinamine]
Solubility [1]: 0.1%
Foamability (mL) after (min) 1 [3]: 3 mL
Foamability (mL) after (min) 5 [3]: 3 mL
Foamability (mL) after (min) 10 [3]: 2 mL
CMC (%) ([4]; Table E5.2): 0.2%
Surface tension (nM/m) ([4]; Table E5.2): 33.7 mN/m

Compound: CC(C)CNC(=O)[C@H](O)[C@@H](O)[C@@H](O)CO [Compound 05, 1-(N-isobutyl)-L-arabinonamide]
solubility in water, in words [1]: soluble
SOLUBILITY (H2O) ([1]; Table E1, arabinonamides): Yes
FOAM ([2]; Table E1): −
stable surface tension value at maximal concentration (micelle formation) ([4]; maximal concentration in water, means no micelles were formed): do not reach a stable surface tension value

Compound: CCCCCCCCCCCCNC(=O)[C@H](O)[C@@H](O)[C@@H](O)[C@H](O)C(=O)O [Compound 13]
solubility in water, in words [1]: relatively low
FOAM ([2]; Table E2): −

Compound: CCCCCCCCNC(=O)[C@H](O)[C@@H](O)[C@@H](O)[C@H](O)C(=O)O [Compound 11]
solubility in H2O [1]: 2%
SOLUBILITY (H2O) [1, 8]: ~2.0%
foam stability compared with SLES [2]: quite similar
foaming behaviour / foam creation, in words [2]: Foam appears
FOAM ([2]; Table E2): ++
SURFACE TENSION [4]: 26 mN/m
concentration at which the surface tension is reached [4]: 0.29%
CMC (%) ([4]; Table E2): 0.17%
SURFACE TENSION [4, 9]: 26.0 mN/m

Compound: CCCCCCCCCCN(C)C[C@H](O)[C@@H](O)[C@@H](O)[C@H](O)C(=O)O [Compound 25b, N-methyldecyl-D-galactaric acid amine]
Solubility [1]: 2%
Foamability (mL) after (min) 1 [3]: 6 mL
Foamability (mL) after (min) 5 [3]: 6 mL
Foamability (mL) after (min) 10 [3]: 5 mL
CMC (%) ([4]; Table E5.2): 0.06%
Surface tension (nM/m) ([4]; Table E5.2): 32.85 mN/m

Compound: CCCCCCNC(=O)[C@H](O)[C@@H](O)[C@@H](O)[C@H](O)C(=O)O [Compound 10]
solubility in H2O [1]: 2.5%
SOLUBILITY (H2O) [1, 8]: ~2.5%
FOAM ([2]; Table E2): −
SURFACE TENSION [4, 9]: 49.43 mN/m

Second part, the compound after the results:

solubility in H2O [1]: 1%
SOLUBILITY (H2O) ([1]; Table E5): 1%
Solubility [1]: 1%
FOAM ([2]; Table E5, pH not given): +++
stability in foam ([2]; whole pH range): enormous stability
Foamability (mL) after (min) 1 [3]: 4.5 mL
Foamability (mL) after (min) 5 [3]: 5 mL
Foamability (mL) after (min) 10 [3]: 3 mL
SURFACE TENSION [4]: 33.9 mN/m
CMC (%) ([4]; Table E5): 0.1%
SURFACE TENSION [4, 5]: 33.9 mN/m
CMC (%) ([4]; Table E5.2): 0.1%
Surface tension (nM/m) ([4]; Table E5.2): 33.9 mN/m
critical micelle concentration (CMC) ([4]; running text b302): 0.01%
Compound: CCCCCCCCCCCCN(C)C[C@H](O)[C@@H](O)[C@@H](O)[C@H](O)C(=O)O [Compound 32, N-methyl-N-dodecyl-D-galacturonic acid amine]

SOLUBILITY (H2O) [1, 6]: 19%
Solubility (%) [1]: 19%
FOAM ([2]; Table E6, in Salt form): −
Foamability 1 min [3]: 0.5 mL
Foamability 5 min [3]: 0 mL
Foamability 30 min [3]: 0 mL
CMC (%) ([4]; Table E6, in Salt form): 1.60%
SURFACE TENSION ([4]; Table E6, in Salt form): 49.275 mN/m
CMC (%) ([4]; Table E8): 1.30%
Surface tension (nM/m) ([4]; Table E8): 53.59 mN/m
Compound: CCCCCC[N+](C)([O-])C[C@H](O)[C@@H](O)[C@@H](O)CO (stereo partly drawn) [Compound 38, N-methylhexyl-L-arabinonamine oxide]

SOLUBILITY (H2O) ([1]; Table E4): 0.75%
Solubility [1]: 0.75%
FOAM ([2]; Table E4, pH not given): −
CMC (%) ([4]; Table E4): 0.5%
SURFACE TENSION [4, 7]: 30.3 mN/m
Compound: CCCCCCNC[C@H](O)[C@@H](O)[C@@H](O)CO [Compound 27, N-hexyl-L-arabinamine, reference compound]

SOLUBILITY (H2O) [1, 6]: 11%
Solubility (%) [1]: 11%
FOAM ([2]; Table E6, in Salt form): ++
Foamability 1 min [3]: 2 mL
Foamability 5 min [3]: 2 mL
Foamability 30 min [3]: 0.5 mL
CMC (%) ([4]; Table E6, in Salt form): 0.55%
SURFACE TENSION ([4]; Table E6, in Salt form): 27.734 mN/m
CMC (%) ([4]; Table E8): 0.55%
Surface tension (nM/m) ([4]; Table E8): 27.73 mN/m
Compound: CCCCCCCC[N+](C)([O-])C[C@H](O)[C@@H](O)[C@@H](O)CO (stereo partly drawn) [Compound 39, N-methyloctyl-L-arabinonamine oxide]

SOLUBILITY (H2O) ([1]; Table E4): 1%
FOAM ([2]; Table E4, pH not given): −
CMC (%) ([4]; Table E4): 1%
SURFACE TENSION [4, 7]: 56.1 mN/m
Compound: O=C(O)CCCCCCCCCCNC[C@H](O)[C@@H](O)[C@@H](O)CO [Compound 29]

SOLUBILITY (H2O) [1, 6]: 10%
Solubility (%) [1]: 10%
FOAM ([2]; Table E6, in Salt form): +++
Foamability 1 min [3]: 6 mL
Foamability 5 min [3]: 6 mL
Foamability 30 min [3]: 2 mL
CMC (%) ([4]; Table E6, in Salt form): 0.65%
SURFACE TENSION ([4]; Table E6, in Salt form): 42.89 mN/m
CMC (%) ([4]; Table E8): 0.65%
Surface tension (nM/m) ([4]; Table E8): 42.89 mN/m
Compound: CCCCCCCC[N+](C)([O-])C[C@H](O)[C@@H](O)[C@@H](O)[C@H](O)C(=O)O (stereo partly drawn) [Compound 42, N-methyl-N-octyl-D-galacturonic acid amine oxide]

concentration at which the surface tension is reached [4]: 0.02%
Compound: CCCCCCCCCCCCOS(=O)(=O)[O-].[Na+] [SLS, reference compound]

FOAM ([2]; Table E4, pH not given): −
Compound: CCCCCCCCNC[C@H](O)[C@@H](O)[C@@H](O)CO [Compound 28, N-octyl-L-arabinamine, reference compound]

Solubility [1]: 0.55%
Compound: CCCCCCCCCCNC[C@H](O)[C@@H](O)[C@@H](O)[C@H](O)C(=O)O [Compound 33b, N-decyl-D-galacturonic acid amine]

SOLUBILITY (H2O) ([1]; Table E5): 0.3%
Solubility [1]: 0.3%
FOAM ([2]; Table E5, pH not given): −
CMC (%) ([4]; Table E5): 0.1%
SURFACE TENSION [4, 5]: 30.7 mN/m
Compound: CCCCCCCCCCCCNC[C@H](O)[C@@H](O)[C@@H](O)[C@H](O)C(=O)O [Compound 34, N-dodecyl-D-galacturonic acid amine, reference compound]

SOLUBILITY (H2O) ([1]; Table E4): 6.67%
FOAM ([2]; Table E4, pH not given): −
CMC (%) ([4]; Table E4): 2%
SURFACE TENSION [4, 7]: 45.8 mN/m
Compound: CCCCNC[C@H](O)[C@@H](O)[C@@H](O)CO [Compound 26, N-butyl-L-arabinamine, reference compound]

solubility in H2O [1]: 1%
SOLUBILITY (H2O) ([1]; Table E5): 1%
Solubility [1]: 1%
FOAM ([2]; Table E5, pH not given): −
CMC (%) ([4]; Table E5): 1%
SURFACE TENSION [4, 5]: 45.1 mN/m
Compound: CCCCCCCCNC[C@H](O)[C@@H](O)[C@@H](O)[C@H](O)C(=O)O [Compound 33, N-octyl-D-galacturonic acid amine, reference compound]

SOLUBILITY (H2O) ([1]; Table E5): 0.9%
FOAM ([2]; Table E5, pH not given): −
Compound: CCCCCCCC(C)NC[C@H](O)[C@@H](O)[C@@H](O)[C@H](O)C(=O)O (stereo partly drawn) [Compound 35, N-(1-methyloctyl)-D-galacturonic acid amine]

solubility in H2O [1]: 0%
Compound: CCCCCCCCCCCCN(C)C[C@H](O)[C@@H](O)[C@H](O)[C@H](O)CO [Compound 50, 1-(N-methyl-N-dodecyl)-D-glucosamine]
